# From PubChem BioAssay (NCI)
#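 Growth conditions: 96-well plates. Treatment: test compound, 48 hours, 5 concentrations. Analysis: linear interpolation between bracketing concentrations; unreached endpoints set to highest concentration. Here, GI50 denotes the concentration required for 50% inhibition of growth. TGI is the concentration that stops growth completely.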
# What was measured:
# Assay in all cases: inhibition of tumour cell growth, NCI panel, 48 h
# MDA-MB-435 = test system: MDA-MB-435
# COLO 205 colon = test system: COLO 205 colon
# UACC-257 melanoma = test system: UACC-257 melanoma
# SF-268 CNS = test system: SF-268 CNS
# T-47D breast = test system: T-47D breast
# MCF7 breast = test system: MCF7 breast
# A549 NSCLC = test system: A549 NSCLC
# SK-MEL-28 melanoma = test system: SK-MEL-28 melanoma
# MDA-MB-231 breast = test system: MDA-MB-231 breast
# SF-539 CNS = test system: SF-539 CNS
# ACHN renal = test system: ACHN renal
# IGROV1 ovarian = test system: IGROV1 ovarian
# HT29 colon = test system: HT29 colon
# SNB-75 CNS = test system: SNB-75 CNS
# NCI/ADR-RES ovarian = test system: NCI/ADR-RES ovarian
# PC-3 prostate = test system: PC-3 prostate
# U251 CNS = test system: U251 CNS
# NCI-H522 lung = test system: NCI-H522 lung
# LOX IMVI melanoma = test system: LOX IMVI melanoma
# NCI-H23 lung = test system: NCI-H23 lung
# 786-0 renal = test system: 786-0 renal
# OVCAR-8 ovarian = test system: OVCAR-8 ovarian
# KM12 colon = test system: KM12 colon
# OVCAR-5 ovarian = test system: OVCAR-5 ovarian
# HCT-15 colon = test system: HCT-15 colon
# SNB-19 CNS = test system: SNB-19 CNS
# TK-10 renal = test system: TK-10 renal
# SK-MEL-5 melanoma = test system: SK-MEL-5 melanoma
# HOP-92 NSCLC = test system: HOP-92 NSCLC
# SK-MEL-2 melanoma = test system: SK-MEL-2 melanoma
# CAKI-1 renal = test system: CAKI-1 renal
# HCC-2998 colon = test system: HCC-2998 colon
# UACC-62 melanoma = test system: UACC-62 melanoma
# A498 renal = test system: A498 renal
# OVCAR-3 ovarian = test system: OVCAR-3 ovarian
# UO-31 renal = test system: UO-31 renal
# BT-549 breast = test system: BT-549 breast
# EKVX NSCLC = test system: EKVX NSCLC
# NCI-H460 lung = test system: NCI-H460 lung
# NCI-H226 lung = test system: NCI-H226 lung
# HCT-116 colon = test system: HCT-116 colon
# DU-145 prostate = test system: DU-145 prostate
# M14 melanoma = test system: M14 melanoma
# SN12C renal = test system: SN12C renal
# OVCAR-4 ovarian = test system: OVCAR-4 ovarian
# MALME-3M melanoma = test system: MALME-3M melanoma
# RXF 393 renal = test system: RXF 393 renal
# SK-OV-3 ovarian = test system: SK-OV-3 ovarian
# RPMI-8226 leukemia = test system: RPMI-8226 leukemia
# SW-620 colon = test system: SW-620 colon
# SF-295 CNS = test system: SF-295 CNS
smiles,measurement,setting,value
CN(C)c1ccc(N)cc1,GI50,MDA-MB-435,3.4 µM
same,TGI,MDA-MB-435,15.2 µM
same,GI50,COLO 205 colon,1.97 µM
same,TGI,COLO 205 colon,4.54 µM
same,GI50,UACC-257 melanoma,2.69 µM
same,TGI,UACC-257 melanoma,7.28 µM
same,GI50,SF-268 CNS,6.96 µM
same,TGI,SF-268 CNS,32.7 µM
same,GI50,T-47D breast,3.25 µM
same,TGI,T-47D breast,9.7 µM
same,GI50,MCF7 breast,2.83 µM
same,TGI,MCF7 breast,9.12 µM
same,GI50,A549 NSCLC,4.58 µM
same,TGI,A549 NSCLC,52.6 µM
same,GI50,SK-MEL-28 melanoma,7.81 µM
same,TGI,SK-MEL-28 melanoma,22.3 µM
same,GI50,MDA-MB-231 breast,3.99 µM
same,TGI,MDA-MB-231 breast,55.2 µM
same,GI50,SF-539 CNS,10.3 µM
same,TGI,SF-539 CNS,25.5 µM
same,GI50,ACHN renal,4.38 µM
same,TGI,ACHN renal,18 µM
same,GI50,IGROV1 ovarian,4.04 µM
same,TGI,IGROV1 ovarian,23.8 µM
same,GI50,HT29 colon,3.04 µM
same,TGI,HT29 colon,10.8 µM
same,GI50,SNB-75 CNS,3.79 µM
same,TGI,SNB-75 CNS,17.3 µM
same,GI50,NCI/ADR-RES ovarian,12.6 µM
same,TGI,NCI/ADR-RES ovarian,48 µM
same,GI50,PC-3 prostate,3.53 µM
same,TGI,PC-3 prostate,21.8 µM
same,GI50,U251 CNS,3.36 µM
same,TGI,U251 CNS,13.2 µM
same,GI50,NCI-H522 lung,1.94 µM
same,TGI,NCI-H522 lung,7.84 µM
same,GI50,LOX IMVI melanoma,3.94 µM
same,TGI,LOX IMVI melanoma,14.7 µM
same,GI50,NCI-H23 lung,3.14 µM
same,TGI,NCI-H23 lung,14.1 µM
same,GI50,786-0 renal,8.38 µM
same,TGI,786-0 renal,97.5 µM
same,GI50,OVCAR-8 ovarian,3.24 µM
same,TGI,OVCAR-8 ovarian,19.7 µM
same,GI50,KM12 colon,3.25 µM
same,TGI,KM12 colon,12.2 µM
same,GI50,OVCAR-5 ovarian,13.5 µM
same,TGI,OVCAR-5 ovarian,42.6 µM
same,GI50,HCT-15 colon,6.66 µM
same,TGI,HCT-15 colon,38.5 µM
same,GI50,SNB-19 CNS,4.35 µM
same,TGI,SNB-19 CNS,> 100 µM
same,GI50,TK-10 renal,3.05 µM
same,TGI,TK-10 renal,18.5 µM
same,GI50,SK-MEL-5 melanoma,3.91 µM
same,TGI,SK-MEL-5 melanoma,13.7 µM
same,GI50,HOP-92 NSCLC,2.3 µM
same,TGI,HOP-92 NSCLC,7.91 µM
same,GI50,SK-MEL-2 melanoma,2.55 µM
same,TGI,SK-MEL-2 melanoma,7.84 µM
same,GI50,CAKI-1 renal,5.6 µM
same,TGI,CAKI-1 renal,30.9 µM
same,GI50,HCC-2998 colon,4.44 µM
same,TGI,HCC-2998 colon,21.2 µM
same,GI50,UACC-62 melanoma,4 µM
same,TGI,UACC-62 melanoma,16.8 µM
same,GI50,A498 renal,7.02 µM
same,TGI,A498 renal,50.7 µM
same,GI50,OVCAR-3 ovarian,2.14 µM
same,TGI,OVCAR-3 ovarian,6.12 µM
same,GI50,UO-31 renal,3.97 µM
same,TGI,UO-31 renal,16.3 µM
same,GI50,BT-549 breast,4.7 µM
same,TGI,BT-549 breast,16.1 µM
same,GI50,EKVX NSCLC,3.32 µM
same,TGI,EKVX NSCLC,26.4 µM
same,GI50,NCI-H460 lung,3.09 µM
same,TGI,NCI-H460 lung,13 µM
same,GI50,NCI-H226 lung,12.4 µM
same,TGI,NCI-H226 lung,48 µM
same,GI50,HCT-116 colon,2.67 µM
same,TGI,HCT-116 colon,8.44 µM
same,GI50,DU-145 prostate,6.05 µM
same,TGI,DU-145 prostate,48.1 µM
same,GI50,M14 melanoma,4.66 µM
same,TGI,M14 melanoma,16.3 µM
same,GI50,SN12C renal,4.35 µM
same,TGI,SN12C renal,33.9 µM
same,GI50,OVCAR-4 ovarian,1.74 µM
same,TGI,OVCAR-4 ovarian,3.45 µM
same,GI50,MALME-3M melanoma,3.17 µM
same,TGI,MALME-3M melanoma,13.8 µM
same,GI50,RXF 393 renal,10.4 µM
same,TGI,RXF 393 renal,26 µM
same,GI50,SK-OV-3 ovarian,13.1 µM
same,TGI,SK-OV-3 ovarian,58 µM
same,GI50,RPMI-8226 leukemia,2.71 µM
same,TGI,RPMI-8226 leukemia,9.1 µM
same,GI50,SW-620 colon,4.15 µM
same,TGI,SW-620 colon,17.2 µM
same,GI50,SF-295 CNS,2.37 µM
same,TGI,SF-295 CNS,6.48 µM
